Like-named read-outs stand apart in the source and are kept apart here.
Experiments:
[1] = target: T1, hK-RasG12C - hSOS1 interaction (Homo sapiens, UniProt Q07889); assay: Biochemical Assay 1: hK-RasG12C interaction assay with hSOS1 (HTRF); type: binding
T1 construct: hSOS1 (amino acid 564-1049); made in house; host or cells: E. coli BL21 (DE3)
T1 sequence (Q07889 with tags, fused parts or gaps): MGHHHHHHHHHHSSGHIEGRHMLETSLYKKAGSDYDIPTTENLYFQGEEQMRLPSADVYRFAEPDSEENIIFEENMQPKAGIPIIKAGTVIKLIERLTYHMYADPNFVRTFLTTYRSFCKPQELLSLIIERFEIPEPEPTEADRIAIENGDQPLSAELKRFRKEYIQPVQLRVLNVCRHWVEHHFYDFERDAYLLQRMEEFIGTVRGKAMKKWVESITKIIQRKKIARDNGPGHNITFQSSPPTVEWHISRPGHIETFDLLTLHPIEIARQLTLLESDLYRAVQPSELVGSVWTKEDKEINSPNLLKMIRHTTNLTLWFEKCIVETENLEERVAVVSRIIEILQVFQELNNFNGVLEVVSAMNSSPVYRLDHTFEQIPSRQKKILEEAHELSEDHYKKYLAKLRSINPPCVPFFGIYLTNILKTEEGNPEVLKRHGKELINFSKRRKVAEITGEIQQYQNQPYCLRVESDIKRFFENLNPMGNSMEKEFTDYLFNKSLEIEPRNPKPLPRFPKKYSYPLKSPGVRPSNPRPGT
Description: Biochemical Assay 1: hK-RasG12C Interaction Assay with hSOS1
This assay quantifies the equilibrium interaction of human SOS1 (hSOS1) with human K-Ras^G12C (hK-RasG12C). Detection of the interaction is achieved by measuring homogenous time-resolved fluorescence resonance energy transfer (HTRF) from antiGST-Europium (FRET donor) bound to GST-K-RasG12C to anti-6His-XL665 bound to His-tagged hSOS1 (FRET-acceptor).
The assay buffer contained 5 mM HEPES pH 7.4 (Applichem), 150 mM NaCl (Sigma), 10 mM EDTA (Promega), 1 mM DTT (Thermofisher), 0.05% BSA Fraction V, pH 7.0, (ICN Biomedicals), 0.0025% (v/v) Igepal (Sigma) and 100 mM KF (FLUKA).
Concentrations of protein batches used were optimized to be within the linear range of the HTRF signal. A Ras working solution was prepared in assay buffer containing typically 10 nM GST-hK-RasG12C and 2 nM antiGST-Eu(K) (Cisbio, France). A SOS1 working solution was prepared in assay buffer containing typically 20 nM His-hSOS1 and 10 nM anti-6His-XL665 (Cisbio, France). An inhibitor control solution was prepared in assay buffer containing 10 nM anti-6His-XL665 without hSOS1.
(§1) Fifty nl of a 100-fold concentrated solution of the test compound in DMSO were transferred into a black microtiter test plate (384 or 1536, Greiner Bio-One, Germany) For this, either a Hummingbird liquid handler (Digilab, Mass., USA) or an Echo acoustic system (Labcyte, Calif., USA) was used.
(§2) All steps of the assay were performed at 20° C. A volume of 2.5 μl of the Ras working solution was added to all wells of the test plate using a Multidrop dispenser (Thermo Labsystems). After 2 mM preincubation, 2.5 μl of the SOS1 working solution were added to all wells except for those wells at the side of the test plate that were subsequently filled with 2.5 μl of the inhibitor control solution. After 60 mM incubation the fluorescence was measured with a Pherastar (BMG, Germany) using the HTRF module (excitation 337 nm, emission 1:620 nm, emission 2:665 nm).
(§3) IC50 values were calculated by 4-Parameter fitting using a commercial software package (Genedata Screener, Switzerland).

[2] = target: T2, hSOS1 (hSOS1-mediated nucleotide exchange of hK-RasG12C) (Homo sapiens, UniProt Q07889); assay: Biochemical Assay 2: hK-RasG12C activation assay by hSOS1 at high GTP concentration (HTRF nucleotide exchange); conditions: high GTP (50 μM GTP)
T2 construct: hSOS1 (amino acid 564-1049); made in house; host or cells: E. coli BL21 (DE3)
T2 sequence (Q07889 with tags, fused parts or gaps): T1 sequence (Q07889 with tags, fused parts or gaps)
Text: Biochemical Assay 2: hK-RasG12C Activation Assay by hSOS1 at High GTP Concentration
This assay quantifies human SOS1-mediated nucleotide exchange of human K-Ras^G12C (hK-RasG12C) preloaded with a fluorescent […] and in presence of an excess of free GTP. Loaded hK-RasG12C generates a high HTRF-signal by energy transfer from antiGST-Terbium (FRET donor) bound to hK-Ras to the loaded fluorescent GDP analog (FRET-acceptor). hSOS1 activity exchanges the fluorescent GDP for non-fluorescent GTP and therefore leads to a reduction of the HTRF signal.
The fluorescent GDP-analog EDA-GDP-Dy647P1 (2′/3′-O-(2-Aminoethyl-carbamoyl)-guanosine-5′-diphosphate labelled with Dy647P1 (Dyomics GmbH, Germany)) was synthesized by Jena Biosciences GmbH (Germany) and supplied as a 1 mM aqueous solution.
Concentrations of protein batches used were optimized to be within the linear range of the HTRF signal.
Addition of 20 μl 1 M MgCl2 (Sigma) to final 40 mM and store on ice. Purification into buffer (10 mM HEPES pH 7.4 (Applichem), 150 mM NaCl (Sigma), 5 mM MgCl2 (Sigma)) by use of a PD-Minitrap desalting column (GE Healthcare). Concentration of 1 ml purified hK-Ras-GDP-Dy647 is approx. 4-5 μM.
(§4) The assay buffer contained 10 mM HEPES pH 7.4 (Applichem), 150 mM NaCl (Sigma), 5 mM MgCl2 (Sigma), 1 mM DTT (Thermofisher), 0.05% BSA Fraction V, pH 7.0, (ICN Biomedicals), 0.0025% (v/v) Igepal (Sigma).
A Ras working solution was prepared in assay buffer containing typically 80 nM loaded GST-hK-RasG12C-EDA-GDP-Dy647P1 and 2 nM antiGST-Tb (Cisbio, France).
Alternatively, the inhibitor control solution was prepared by supplementing the hSOS1 working solution with 20 μM of 6,7-dimethoxy-N-[(1R)-1-(1-naphthyl)ethyl]quinazolin-4-amine which was used to calibrate the assay.
as §1
as §2, with “min.” for “mM”, “hSOS1” for “SOS1”, “20 min.” for “60 mM”
as §3

[3] = target: T3, hSOS1 (hSOS1-mediated loading of hK-RasG12C-GDP) (Homo sapiens, UniProt Q07889); assay: Biochemical Assay 3: hK-RasG12C activation assay by hSOS1 (loading with fluorescent GTP analog, HTRF); conditions: no GTP
T3 construct: hSOS1 (amino acid 564-1049); made in house; host or cells: E. coli BL21 (DE3)
T3 sequence (Q07889 with tags, fused parts or gaps): T1 sequence (Q07889 with tags, fused parts or gaps)
Text: Biochemical Assay 3: hK-RasG12C Activation Assay by hSOS1
K-Ras is a small GTPase that can bind GDP and GTP. The guanine nucleotide exchange factor SOS1 catalyzes the activation of K-Ras by promoting the exchange of GDP to GTP. SOS1 binds to K-Ras-GDP thereby opening the GDP-binding pocket to facilitate GDP release. Rebinding of excess nucleotide leads to dissociation of the K-Ras-SOS1 intermediate complex leaving K-Ras loaded with the nucleotide.
This assay quantifies human SOS1-(hSOS1-)mediated loading of human K-Ras^G12C-GDP (hK-RasG12C-GDP) with a fluorescent GTP-analog. Detection of successful loading is achieved by measuring homogenous time-resolved fluorescence resonance energy transfer (HTRF) from antiGST-Terbium (FRET donor) bound to GST-hK-RasG12C (see below) to the loaded fluorescent GTP analog (FRET-acceptor).
The fluorescent GTP-analog EDA-GTP-Dy647P1 (2′/3′-O-(2-Aminoethyl-carbamoyl)-guanosine-5′-triphosphate labelled with Dy647P1 (Dyomics GmbH, Germany)) was synthesized by Jena Biosciences GmbH (Germany) and supplied as a 1 mM aqueous solution.
as §4
Concentrations of protein batches used were optimized to be within the linear range of the HTRF signal. A hRas working solution was prepared in assay buffer containing typically 100 nM GST-hK-RasG12C and 2 nM antiGST-Tb (Cisbio, France). A hSOS1 working solution was prepared in assay buffer containing typically 20 nM hSOS1 and 200 nM EDA-GTP-Dy647P1. An inhibitor control solution was prepared in assay buffer containing 200 nM EDA-GTP-Dy647P1 without hSOS1.
as §1
as §2, with “hRas” for “Ras”, “10 min.” for “2 mM”, “hSOS1” for “SOS1”, “[…]” for “60”, “1: 620” for “1:620”
as §3

| Structure (SMILES) | IC50 [1] [nM] | IC50 [2] [nM] | IC50 [3] [nM] | IC50 ([1]; values expressed as IC50) [nM] |
| --- | --- | --- | --- | --- |
| CC(=O)N(c1cccc(C(=O)NC2CN(c3cc4c(NC(C)c5ccc(-c6ccccc6CN(C)C)s5)nc(C)nc4cn3)C2)c1)C1CCN(C(=O)OC(C)(C)C)CC1 (centres unmarked) [Example 98, tert-butyl 4-[acetyl(3-{[1-(4-{[1-(5-{2-[(dimethylamino)methyl]phenyl}thiophen-2-yl)ethyl]amino}-2-methylpyrido[3,4-d]pyrimidin-6-yl)azetidin-3-yl]carbamoyl}-phenyl)amino]piperidine-1-carboxylate] | 271 | 428 | 620 |  |
| Cc1nc(NC(C)c2ccc(-c3ccccc3CN(C)C)s2)c2cc(OCCN(C)C)ncc2n1 (centres unmarked) [Example 66, 6-[2-(dimethylamino)ethoxy]-N-[1-(5-{2-[(dimethylamino)methyl]phenyl}thiophen-2-yl)ethyl]-2-methylpyrido[3,4-d]pyrimidin-4-amine] |  | 22.7 |  | 30.4 |
| CC(=O)N(c1cccc(C(=O)NC2CN(c3cc4c(NC(C)c5ccc(-c6ccccc6CN(C)C)s5)nc(C)nc4cn3)C2)c1)[C@@H]1CCN(C(=O)OC(C)(C)C)C1 (stereo partly drawn) [Example 97, tert-butyl (3R)-3-[acetyl(3-{[1-(4-{[1-(5-{2-[(dimethylamino)methyl]phenyl}-2-thienyl)-ethyl]amino}-2-methylpyrido[3,4-d]pyrimidin-6-yl)azetidin-3-yl]carbamoyl}-phenyl)amino]pyrrolidine-1-carboxylate] |  | 298 | 554 | 293 |
| Cc1nc(NC(C)c2ccc(-c3ccccc3CN(C)C)s2)c2cc(N3CC(NCc4ccccc4)C3)ncc2n1 (centres unmarked) [Example 99, 6-[3-(benzylamino)azetidin-1-yl]-N-[1-(5-{2-[(dimethylamino)methyl]phenyl}thiophen-2-yl)ethyl]-2-methylpyrido[3,4-d]pyrimidin-4-amine] |  | 58.8 | 82.5 | 53.2 |
| Cc1nc(NC(C)c2ccc(-c3ccccc3CN(C)C)s2)c2cc(N3CC(NC(=O)N4CCS(=O)(=O)CC4)C3)ncc2n1 (centres unmarked) [Example 100, N-[1-(4-{[1-(5-{2-[(dimethylamino)methyl]phenyl}thiophen-2-yl)ethyl]amino}-2-methylpyrido[3,4-d]pyrimidin-6-yl)azetidin-3-yl]thiomorpholine-4-carboxamide 1,1-dioxide] |  | 103 | 156 | 85.8 |
| CCCOc1cc2c(NC(C)c3ccc(-c4ccccc4CN(C)C)s3)nc(C)nc2cn1 (centres unmarked) [Example 65, N-[1-(5-{2-[(dimethylamino)methyl]phenyl}thiophen-2-yl)ethyl]-2-methyl-6-propoxypyrido[3,4-d]pyrimidin-4-amine] |  | 32.8 |  |  |
| Cc1nc(NC(C)c2ccc(-c3ccccc3CN(C)C)s2)c2cc(N3CCNC(=O)C3)ncc2n1 (centres unmarked) [Example 50, 4-(4-{[1-(5-{2-[(dimethylamino)methyl]phenyl}thiophen-2-yl)ethyl]amino}-2-methylpyrido[3,4-d]pyrimidin-6-yl)piperazin-2-one] |  | 48.8 | 54.8 |  |

— patent US20220274979A1 (Bayer Pharma Aktiengesellschaft, priority 2018, published 2022)
